This test deals with P388 leukemia ip, CD2F1 mice, survival T/C. The experiment in a line: NCI In Vivo Anticancer Drug Screen. Data for tumor model P388 Leukemia (intraperitoneal) in CD2F1 (CDF1) mice. The note with it: endpoint: median survival time, higher = longer survival. In outline:
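Mice carrying the transplanted tumor received test compound or vehicle. Survival was recorded in each group, and the value is the treated-group measurement divided by that of the vehicle-treated control group.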

Where [1] appears, read: dose: 50.0 mg/kg/injection, schedule: Q01DX005 (ip), vehicle: Klucel (hydroxypropylcellulose) (HPC).
The mark [2] stands for this setting: dose: 100.0 mg/kg/injection, schedule: Q01DX005 (ip), vehicle: Klucel (hydroxypropylcellulose) (HPC).
Where [3] appears, read: dose: 200.0 mg/kg/injection, schedule: Q01DX005 (ip), vehicle: Klucel (hydroxypropylcellulose) (HPC).
Setting [4] is: dose: 60.0 mg/kg/injection, schedule: Q01DX005 (ip), vehicle: saline with Tween-80.
[5] abbreviates: dose: 50.0 mg/kg/injection, schedule: Q01DX009 (ip), vehicle: Klucel (hydroxypropylcellulose) (HPC).
Where [6] appears, read: dose: 100.0 mg/kg/injection, schedule: Q01DX009 (ip), vehicle: Klucel (hydroxypropylcellulose) (HPC).
Setting [7] is: dose: 200.0 mg/kg/injection, schedule: Q01DX009 (ip), vehicle: Klucel (hydroxypropylcellulose) (HPC).
Setting [8] is: dose: 50.0 mg/kg/injection, schedule: Q01DX005 (ip), vehicle: saline with Tween-80.
[9] abbreviates: dose: 100.0 mg/kg/injection, schedule: Q01DX005 (ip), vehicle: saline with Tween-80.
[10] abbreviates: dose: 200.0 mg/kg/injection, schedule: Q01DX005 (ip), vehicle: saline with Tween-80.
Setting [11] is: dose: 120.0 mg/kg/injection, schedule: Q01DX005 (ip), vehicle: saline with Tween-80.
Setting [12] is: dose: 240.0 mg/kg/injection, schedule: Q01DX005 (ip), vehicle: saline with Tween-80.
Where [13] appears, read: dose: 100.0 mg/kg/injection, schedule: Q01DX009 (ip), vehicle: saline with Tween-80.
Where [14] appears, read: dose: 60.0 mg/kg/injection, schedule: Q01DX005 (ip), vehicle: Klucel (hydroxypropylcellulose) (HPC).
The mark [15] stands for this setting: dose: 120.0 mg/kg/injection, schedule: Q01DX005 (ip), vehicle: Klucel (hydroxypropylcellulose) (HPC).
[16] abbreviates: dose: 20.0 mg/kg/injection, schedule: Q01DX005 (ip), vehicle: Klucel (hydroxypropylcellulose) (HPC).
The mark [17] stands for this setting: dose: 40.0 mg/kg/injection, schedule: Q01DX005 (ip), vehicle: Klucel (hydroxypropylcellulose) (HPC).

Structures are written as SMILES. Values joined by “and” are separate entries in the source; they are usually repeats but may differ in a detail not shown here. Equal values may be shown once. Toxic doses and inconclusive results are not listed.

With `CCOC(=O)C(=O)N(CCCNc1c2ccccc2nc2c(OC)cccc12)CCCNc1c2ccccc2nc2c(OC)cccc12`, the T/C (dose: 1.25 mg/kg/injection, schedule: Q01DX009 (ip), vehicle: water) was 120 % of control; the T/C (dose: 2.5 mg/kg/injection, schedule: Q01DX009 (ip), vehicle: water) was 120 % of control; the T/C (dose: 10.0 mg/kg/injection, schedule: Q01DX009 (ip), vehicle: water) was 161 % of control.
As to `Cc1ccnc(NS(=O)(=O)c2ccc(NC(=O)Nc3ccc(Cl)c(C(F)(F)F)c3)cc2)n1`, the T/C was 99 % of control under setting [1], 104 % of control under setting [2] and 96 % of control under setting [3].
As for `CCCN(CCC)CCN1C(=O)NC(C)(c2ccccc2)C1=O` (configuration not stated), the T/C is, setting by setting: (dose: 7.5 mg/kg/injection, schedule: Q01DX005 (ip), vehicle: saline with Tween-80) 100 % of control; (dose: 15.0 mg/kg/injection, schedule: Q01DX005 (ip), vehicle: saline with Tween-80) 101 % of control and 97 % of control; (dose: 30.0 mg/kg/injection, schedule: Q01DX005 (ip), vehicle: saline with Tween-80) 99 % of control and 103 % of control; under setting [4], 101 % of control and 94 % of control and 97 % of control.
Consider `N#CCCC1CS1` (configuration not stated), for which the T/C is, setting by setting: (dose: 18.75 mg/kg/injection, schedule: Q01DX009 (ip), vehicle: saline with Tween-80) 103 % of control; (dose: 37.5 mg/kg/injection, schedule: Q01DX009 (ip), vehicle: saline with Tween-80) 108 % of control; (dose: 75.0 mg/kg/injection, schedule: Q01DX009 (ip), vehicle: saline with Tween-80) 109 % of control.
Take `CC/C(=N/N(C)C)C(=O)O`: the T/C reads like this: (dose: 60.0 mg/kg/injection, schedule: Q01DX005 (ip), vehicle: saline) 102 % of control; (dose: 120.0 mg/kg/injection, schedule: Q01DX005 (ip), vehicle: saline) 105 % of control; (dose: 240.0 mg/kg/injection, schedule: Q01DX005 (ip), vehicle: saline) 98 % of control.
Consider `CC(=O)N(C(C)=O)c1ccc(C)cc1`, for which the T/C is, setting by setting: (dose: 12.5 mg/kg/injection, schedule: Q01DX009 (ip), vehicle: Klucel (hydroxypropylcellulose) (HPC)) 94 % of control; (dose: 25.0 mg/kg/injection, schedule: Q01DX009 (ip), vehicle: Klucel (hydroxypropylcellulose) (HPC)) 94 % of control; under setting [5], 100 % of control.
As for `CC1CN2C(=O)NC(=O)C1(c1ccccc1)C2=O` (configuration not stated), the T/C by setting is: under setting [5], 100 % of control; under setting [6], 93 % of control; under setting [7], 97 % of control.
With `C=CCN1C(=O)c2cc(Cl)c(Cl)cc2C1=O`, the T/C is, setting by setting: under setting [8], 102 % of control; under setting [9], 87 % of control; under setting [10], 94 % of control.
As for `Cc1ccc(NC(=O)COc2ccc(Cl)cc2Cl)c(C)c1`, the T/C is 104 % of control (dose: 100.0 mg/kg/injection, schedule: Q04DX003 (ip), vehicle: saline with Tween-80); 95 % of control (dose: 200.0 mg/kg/injection, schedule: Q04DX003 (ip), vehicle: saline with Tween-80); 90 % of control (dose: 400.0 mg/kg/injection, schedule: Q04DX003 (ip), vehicle: saline with Tween-80).
As to `COc1ccc(NC(=O)Nc2ccc(-c3ccc(NC(=O)Nc4ccc(OC)cc4)c(C)c3)cc2C)cc1`, the T/C by setting is: (dose: 25.0 mg/kg/injection, schedule: Q01DX005 (ip), vehicle: saline with Tween-80) 100 % of control; under setting [8], 87 % of control and 94 % of control; under setting [9], 91 % of control; under setting [10], 90 % of control.
As to `CNC(=O)CCC(NS(=O)(=O)c1ccccc1)C(=O)O` (configuration not stated), the T/C runs as follows: under setting [1], 107 % of control; under setting [2], 96 % of control; under setting [3], 95 % of control.
As to `CC1(C)C/C(=N/NC(N)=S)C(=NO)/C(=N\NC(N)=S)C1`, the T/C is, setting by setting: under setting [4], 123 % of control; under setting [11], 110 % of control; under setting [12], 113 % of control.
For the molecule `O=C(Nc1nc2cccnc2s1)C(F)(F)F`, the T/C (dose: 50.0 mg/kg/injection, schedule: Q01DX009 (ip), vehicle: saline with Tween-80) was 100 % of control; the T/C under setting [13] was 97 % of control; the T/C (dose: 200.0 mg/kg/injection, schedule: Q01DX009 (ip), vehicle: saline with Tween-80) is 94 % of control.
As to `Cc1cc(C(O)(C(F)(F)F)C(F)(F)F)c(N)c(C(O)(C(F)(F)F)C(F)(F)F)c1`, the T/C was 104 % of control under setting [1] and 103 % of control under setting [2].
`Clc1ccc(-c2nnc(-c3ccncc3)o2)c(Cl)c1`: the T/C under setting [4] is 93 % of control, the T/C under setting [11] is 93 % of control and the T/C under setting [12] was 86 % of control.
For the molecule `COC(=O)CC1C2(C)C3=C(C)C(c4ccoc4)CC3OC2C2OC(=O)C3(C)C=CC(=O)C1(C)C23` (configuration not stated), the T/C reads like this: (dose: 1.25 mg/kg/injection, schedule: Q01DX009 (ip), vehicle: Klucel (hydroxypropylcellulose) (HPC)) 91 % of control; (dose: 2.5 mg/kg/injection, schedule: Q01DX009 (ip), vehicle: Klucel (hydroxypropylcellulose) (HPC)) 105 % of control; (dose: 5.0 mg/kg/injection, schedule: Q01DX009 (ip), vehicle: Klucel (hydroxypropylcellulose) (HPC)) 86 % of control; (dose: 10.0 mg/kg/injection, schedule: Q01DX009 (ip), vehicle: Klucel (hydroxypropylcellulose) (HPC)) 86 % of control; (dose: 20.0 mg/kg/injection, schedule: Q01DX009 (ip), vehicle: Klucel (hydroxypropylcellulose) (HPC)) 102 % of control.
For the molecule `O=C(NCO)NS(=O)(=O)c1ccc(N2C(=O)c3ccccc3C2=O)cc1`, the T/C under setting [5] is 103 % of control, the T/C under setting [6] is 107 % of control and the T/C under setting [7] was 112 % of control.
For the molecule `Nc1ccc(F)cc1S`, the T/C under setting [13] is 118 % of control.
With `NC(=O)C1=Cc2cccn2-c2ccccc2S1`, the T/C is, setting by setting: under setting [14], 105 % of control; under setting [15], 101 % of control.
For the molecule `CCN(CC)CCOC(=O)C(OCCOc1ccccc1)(c1ccccc1)c1ccccc1`, the T/C is, setting by setting: under setting [1], 117 % of control; under setting [2], 117 % of control.
For the molecule `CNC(=O)Sc1ccc(Cl)cc1`, the T/C was 102 % of control (dose: 50.0 mg/kg/injection, schedule: Q01DX009 (ip), vehicle: suspension in saline); 105 % of control (dose: 100.0 mg/kg/injection, schedule: Q01DX009 (ip), vehicle: suspension in saline); 113 % of control (dose: 200.0 mg/kg/injection, schedule: Q01DX009 (ip), vehicle: suspension in saline).
With `C/C=C/c1ccc(OC(C)C(=O)c2ccc(OC)c(OC)c2)c(OC)c1` (configuration not stated), the T/C (dose: 10.0 mg/kg/injection, schedule: Q01DX005 (ip), vehicle: Klucel (hydroxypropylcellulose) (HPC)) is 97 % of control; the T/C under setting [16] is 100 % of control; the T/C under setting [17] was 99 % of control.
Consider `CC(=O)O[C@@H]1C(=O)C=C(C)[C@@H]2[C@@H](OC(=O)C=C(C)C)[C@H]3OC(=O)C[C@H]4[C@@H](C)[C@@H](O)[C@]5(O)OC[C@]34[C@H]5[C@@]12C`, for which the T/C (dose: 0.5 mg/kg/injection, schedule: Q01DX009 (ip), vehicle: distilled water + Tween-80) was 118 % of control; the T/C (dose: 1.0 mg/kg/injection, schedule: Q01DX009 (ip), vehicle: distilled water + Tween-80) is 121 % of control; the T/C (dose: 10.0 mg/kg/injection, schedule: Q01DX009 (ip), vehicle: distilled water + Tween-80) was 177 % of control.
Regarding `CCCC1(c2ccccc2)C(=O)NCNC1=O`, the T/C is 100 % of control under setting [16]; 99 % of control and 109 % of control under setting [17]; 100 % of control and 116 % of control under setting [14]; 93 % of control and 95 % of control under setting [15]; 92 % of control (dose: 240.0 mg/kg/injection, schedule: Q01DX005 (ip), vehicle: Klucel (hydroxypropylcellulose) (HPC)).
Consider `N#CC12CCC(CC1)CC2Cl` (configuration not stated), for which the T/C was 108 % of control (dose: 0.5 mg/kg/injection, schedule: Q01DX009 (ip), vehicle: saline with Tween-80); 100 % of control (dose: 1.0 mg/kg/injection, schedule: Q01DX009 (ip), vehicle: saline with Tween-80); 106 % of control (dose: 2.0 mg/kg/injection, schedule: Q01DX009 (ip), vehicle: saline with Tween-80); 113 % of control (dose: 4.0 mg/kg/injection, schedule: Q01DX009 (ip), vehicle: saline with Tween-80).
